In patent US11166916B2, “Carbon quantum dots and preparation process and use thereof” (CHANG GUNG UNIVERSITY, priority 2019, dated 2021):
Converted amounts (≈) assume the structure as drawn.

Assays:
Assay in all cases: Antimicrobial test, MIC90 by spread plate count
Escherichia coli = format: cell-based; conditions: BCRC10316, Escherichia coli BCRC 10316
Experimental: (§1) A respective one of Staphylococcus aureus, Escherichia coli, Pseudomonas aeruginosa, Salmonella enteritidis, and MRSA was inoculated into a LB broth, followed by incubation in a thermostatic shaking incubator (37° C.) until an OD600 value of 1.0 was reached. The respective resultant culture was centrifuged at 3,000 g for 10 minutes, and the cell pellet thus obtained was washed with a 5 mM phosphate buffer (pH 7.4), followed by suspending with a LB broth. The resultant bacterial broths of Staphylococcus aureus, Escherichia coli, Pseudomonas aeruginosa, Salmonella enteritidis, and MRSA (each of such five bacterial suspensions contained a bacterial concentration of 1×10^4 CFU/mL) were used for the following experiment.
(§2) A suitable amount of a respective one of CQD^DA, CQD^SPD, CQD^DA-SPM, CQD^DA-SPD, CQD^DA-PUT, CQD^DA-SPM-1, and CQD^DA-SPM-2 was freeze-dried, and the respective resultant freeze-dried powder was dissolved in deionized water, followed by dilution with a 5 mM phosphate buffer (pH 7.4), so as to obtain seven CQD solutions having different concentrations (0.05-50 μg/mL).
(§3) A respective one of the five CQD solutions (i.e., CQD^DA, CQD^SPD, CQD^DA-SPM, CQD^DA-SPD, and CQD^DA-PUT solutions), the DA solutions, and the SPM solutions and a respective one of the bacterial broths of Staphylococcus aureus and Escherichia coli were mixed in a 5 mM phosphate buffer (pH 7.4), and the respective resultant mixture was incubated in a thermostatic shaking incubator (37° C.) for 1 hour, followed by addition of a suitable amount of LB broth. After incubation with shaking for 18 hours, the respective resultant culture was subjected to serial dilution with a LB broth, so as to obtain seven dilutions (10^1 to 10^7).
(§4) Thereafter, 1 μL of the respective dilution was subjected to spread plate procedure. The number of surviving bacteria was counted, and the minimum inhibitory concentration to inhibit the growth of 90% of a bacterial isolate (MIC90) was determined according to the technique well known to and routinely used by one skilled in the art.
(§5) A respective one of the four CQD solutions (i.e., CQD^DA, CQD^DA-SPM, CQD^DA-SPM-1, and CQD^DA-SPM-2 solutions) and the SPM solutions and a respective one of bacterial broths of Staphylococcus aureus, Escherichia coli, Pseudomonas aeruginosa, Salmonella enteritidis, and MRSA were mixed in a 5 mM phosphate buffer (pH 7.4), and the respective resultant mixture was subjected to antimicrobial activity analysis according to the method described in section E of this example.

Staphylococcus aureus = format: cell-based; conditions: ATCC9144, Staphylococcus aureus ATCC 9144
Experimental: as §1, §2, §3, §4, §5

MRSA = format: cell-based, Methicillin-resistant Staphylococcus aureus; conditions: Staphylococcus aureus, ATCC 33592 / MRSA; Table 4; MRSA ATCC 33592
Experimental: as §1
as §2, with “μg/mL). […]” for “μg/mL).”

Salmonella enteritidis = format: cell-based; conditions: Salmonella enterica, ATCC 13076 / ENTERITIDIS; Table 4; Salmonella enteritidis ATCC 13076
Experimental: as §1, §2, §3, §4, §5

Pseudomonas aeruginosa = format: cell-based; conditions: ATCC10145; Table 4; Pseudomonas aeruginosa ATCC 10145
Experimental: as §1, §2, §3, §4, §5

[1] = Table 3, 1 h in 5 mM phosphate buffer pH 7.4, then 18 h in LB broth

Row | MIC90 (Escherichia coli; [1]) [µg/mL] | MIC90 (Staphylococcus aureus; [1]) [µg/mL] | MIC90 (MRSA) [µg/mL] | MIC90 (Salmonella enteritidis) [µg/mL] | MIC90 (Escherichia coli; Table 4) [µg/mL] | MIC90 (Staphylococcus aureus; Table 4) [µg/mL] | MIC90 (Pseudomonas aeruginosa) [µg/mL] | SMILES
1 | 512 (≈ 3.34 mM) | 250 (≈ 1.63 mM) |  |  |  |  |  | NCCc1ccc(O)c(O)c1 [DA, dopamine]
2 | 2350 (≈ 11.6 mM) | 658 (≈ 3.25 mM) | 1550 (≈ 7.67 mM) | 2660 (≈ 13.1 mM) | 2350 (≈ 11.6 mM) | 658 (≈ 3.25 mM) | 2450 (≈ 12.1 mM) | NCCCNCCCCNCCCN [SPM, spermine]
